pIC50: −log10 of the molar value. Read-outs that look alike come from different tables or passages of the source.
Tests used:
Format in all cases: cell-based
[1] = biological target: AXL (phospho-AXL, Gas6-stimulated A-172 glioblastoma cells) (Homo sapiens (Human), UniProt P30530); assay: AXL autophosphorylation ELISA in A-172 cells (Example E); details: cellular activity, read-out: Axl IC50
Outline: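 Phospho-AXL was measured by ELISA in lysates of Gas6-stimulated A-172 cells, starved 24 h in serum-free medium and exposed 1 h to an 8-point compound dilution at 0.3% DMSO.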

[2] = biological target: Met (phospho-Met, HGF-stimulated PC-3 prostate cancer cells) (Homo sapiens (Human), UniProt P08581); assay: Met autophosphorylation ELISA in PC-3 cells (Example F); details: cellular activity, read-out: c-Met IC50
Outline: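 Serum-starved (3 h) PC-3 cells were treated 1 h with compounds (8-point curve, 0.3% DMSO), then stimulated with 100 ng/mL human HGF for 10 min. Lysate phospho-Met (panTyr) was measured by sandwich ELISA, normalised to DMSO and reference-inhibitor controls. IC50 came from 4-parameter logistic fit.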

[3] = biological target: KDR (phospho-KDR, VEGF165-stimulated HUVEC cells) (Homo sapiens (Human), UniProt P35968); assay: KDR autophosphorylation ELISA in HUVEC cells (Example G); details: cellular activity
Outline: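 Read-out is phospho-KDR measured by ELISA in lysates of VEGF165-stimulated (100 ng/mL, 5 min) HUVEC that were serum-starved 24 h and then pre-exposed 1 h to compound across 8 doses in 0.3% DMSO. Unstimulated lysates defined 0% and stimulated vehicle lysates 100% activity; IC50 values come from 4-parameter logistic regression.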

[4] = biological target: Mer (phospho-Mer, MERTK-transfected 293A cells) (Homo sapiens (Human), UniProt Q12866); assay: Mer autophosphorylation ELISA in transient transfected 293A cells (Example H); details: cellular activity
Outline: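 MERTK-transfected 293A; 8-pt dose, 1 h, serum-free, 0.3% DMSO. Cold lysis with orthovanadate and protease/phosphatase inhibitors. Phospho-Mer by DuoSet IC ELISA vs phospho-Mer standard. IC50: 4-PL fit; DMSO = 100%, reference inhibitor = 0%.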

[5] = AXL autophosphorylation ELISA in A-172 cells
[6] = Met autophosphorylation ELISA in PC-3 cells
[7] = KDR autophosphorylation ELISA in HUVEC cells
[8] = Mer autophosphorylation ELISA in transient transfected 293A cells

Met (phospho-Met, HGF-stimulated PC-3 prostate cancer cells), sequence (P08581 25-1390): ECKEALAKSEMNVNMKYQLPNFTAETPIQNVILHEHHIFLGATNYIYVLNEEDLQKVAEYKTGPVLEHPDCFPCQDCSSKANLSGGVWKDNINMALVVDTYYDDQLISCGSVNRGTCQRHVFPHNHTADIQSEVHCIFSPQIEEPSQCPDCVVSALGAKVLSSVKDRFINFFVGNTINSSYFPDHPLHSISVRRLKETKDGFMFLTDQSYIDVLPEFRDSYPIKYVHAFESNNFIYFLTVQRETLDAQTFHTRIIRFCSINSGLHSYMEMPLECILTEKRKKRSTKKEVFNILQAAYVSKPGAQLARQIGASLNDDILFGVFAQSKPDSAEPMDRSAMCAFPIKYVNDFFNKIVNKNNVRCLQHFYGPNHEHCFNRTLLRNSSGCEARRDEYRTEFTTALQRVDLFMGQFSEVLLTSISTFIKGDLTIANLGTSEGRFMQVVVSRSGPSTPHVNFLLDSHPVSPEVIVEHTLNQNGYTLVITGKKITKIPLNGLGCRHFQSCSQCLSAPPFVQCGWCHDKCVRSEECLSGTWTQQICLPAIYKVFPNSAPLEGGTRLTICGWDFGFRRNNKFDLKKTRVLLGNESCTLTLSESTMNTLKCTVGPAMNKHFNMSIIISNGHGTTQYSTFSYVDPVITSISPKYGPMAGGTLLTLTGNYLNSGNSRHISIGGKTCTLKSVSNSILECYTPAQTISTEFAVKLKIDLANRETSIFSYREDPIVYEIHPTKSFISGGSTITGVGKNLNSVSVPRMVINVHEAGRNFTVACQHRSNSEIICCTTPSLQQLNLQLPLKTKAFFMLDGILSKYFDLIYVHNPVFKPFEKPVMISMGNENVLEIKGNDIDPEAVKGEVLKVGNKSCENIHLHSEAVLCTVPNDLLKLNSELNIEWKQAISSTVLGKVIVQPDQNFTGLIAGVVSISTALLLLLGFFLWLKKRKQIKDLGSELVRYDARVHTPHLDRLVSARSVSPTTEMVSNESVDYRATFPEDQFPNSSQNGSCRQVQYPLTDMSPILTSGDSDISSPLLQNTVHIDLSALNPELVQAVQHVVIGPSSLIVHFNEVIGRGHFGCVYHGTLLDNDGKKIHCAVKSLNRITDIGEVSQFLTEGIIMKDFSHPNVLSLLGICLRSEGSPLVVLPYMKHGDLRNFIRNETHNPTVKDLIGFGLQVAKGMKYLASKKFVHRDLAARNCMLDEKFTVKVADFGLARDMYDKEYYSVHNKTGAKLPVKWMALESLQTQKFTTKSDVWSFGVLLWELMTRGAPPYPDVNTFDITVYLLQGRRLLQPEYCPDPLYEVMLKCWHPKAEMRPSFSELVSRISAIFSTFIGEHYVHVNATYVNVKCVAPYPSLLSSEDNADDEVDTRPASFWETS
KDR (phospho-KDR, VEGF165-stimulated HUVEC cells), sequence (P35968 20-1356): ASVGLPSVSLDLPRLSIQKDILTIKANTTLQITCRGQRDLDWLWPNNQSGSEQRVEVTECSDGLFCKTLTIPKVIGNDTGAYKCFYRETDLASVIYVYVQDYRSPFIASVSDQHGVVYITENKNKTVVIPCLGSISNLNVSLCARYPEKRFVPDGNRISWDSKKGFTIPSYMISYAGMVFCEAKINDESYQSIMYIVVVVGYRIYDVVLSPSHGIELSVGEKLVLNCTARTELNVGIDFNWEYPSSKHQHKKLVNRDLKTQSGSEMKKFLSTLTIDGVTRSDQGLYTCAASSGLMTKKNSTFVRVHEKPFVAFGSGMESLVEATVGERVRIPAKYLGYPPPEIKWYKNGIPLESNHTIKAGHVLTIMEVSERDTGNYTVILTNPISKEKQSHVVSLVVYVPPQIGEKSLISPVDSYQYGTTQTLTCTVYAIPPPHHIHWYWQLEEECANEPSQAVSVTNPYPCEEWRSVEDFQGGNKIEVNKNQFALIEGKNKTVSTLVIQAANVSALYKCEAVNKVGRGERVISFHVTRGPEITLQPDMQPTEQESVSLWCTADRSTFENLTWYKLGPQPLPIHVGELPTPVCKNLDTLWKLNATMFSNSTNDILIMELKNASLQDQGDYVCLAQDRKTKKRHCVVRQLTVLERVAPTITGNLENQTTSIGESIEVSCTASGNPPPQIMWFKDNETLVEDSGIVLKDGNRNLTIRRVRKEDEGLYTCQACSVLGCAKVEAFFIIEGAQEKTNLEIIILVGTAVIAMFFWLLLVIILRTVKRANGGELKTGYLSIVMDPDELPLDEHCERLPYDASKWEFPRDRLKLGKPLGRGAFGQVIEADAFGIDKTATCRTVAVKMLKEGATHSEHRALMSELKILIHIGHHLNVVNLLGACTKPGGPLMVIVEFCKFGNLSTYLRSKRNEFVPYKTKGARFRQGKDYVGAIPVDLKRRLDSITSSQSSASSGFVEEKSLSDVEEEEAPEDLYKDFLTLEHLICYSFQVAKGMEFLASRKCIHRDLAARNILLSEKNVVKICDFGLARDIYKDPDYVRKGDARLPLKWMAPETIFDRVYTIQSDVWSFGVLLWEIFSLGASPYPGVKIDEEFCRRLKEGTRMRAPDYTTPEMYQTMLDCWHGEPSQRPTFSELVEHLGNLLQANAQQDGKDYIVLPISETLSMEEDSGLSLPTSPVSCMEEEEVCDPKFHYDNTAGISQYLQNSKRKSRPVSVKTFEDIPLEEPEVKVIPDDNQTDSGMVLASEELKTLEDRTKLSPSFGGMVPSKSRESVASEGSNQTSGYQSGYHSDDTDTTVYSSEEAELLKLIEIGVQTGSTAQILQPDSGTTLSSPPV
AXL (phospho-AXL, Gas6-stimulated A-172 glioblastoma cells), sequence (P30530 26-894): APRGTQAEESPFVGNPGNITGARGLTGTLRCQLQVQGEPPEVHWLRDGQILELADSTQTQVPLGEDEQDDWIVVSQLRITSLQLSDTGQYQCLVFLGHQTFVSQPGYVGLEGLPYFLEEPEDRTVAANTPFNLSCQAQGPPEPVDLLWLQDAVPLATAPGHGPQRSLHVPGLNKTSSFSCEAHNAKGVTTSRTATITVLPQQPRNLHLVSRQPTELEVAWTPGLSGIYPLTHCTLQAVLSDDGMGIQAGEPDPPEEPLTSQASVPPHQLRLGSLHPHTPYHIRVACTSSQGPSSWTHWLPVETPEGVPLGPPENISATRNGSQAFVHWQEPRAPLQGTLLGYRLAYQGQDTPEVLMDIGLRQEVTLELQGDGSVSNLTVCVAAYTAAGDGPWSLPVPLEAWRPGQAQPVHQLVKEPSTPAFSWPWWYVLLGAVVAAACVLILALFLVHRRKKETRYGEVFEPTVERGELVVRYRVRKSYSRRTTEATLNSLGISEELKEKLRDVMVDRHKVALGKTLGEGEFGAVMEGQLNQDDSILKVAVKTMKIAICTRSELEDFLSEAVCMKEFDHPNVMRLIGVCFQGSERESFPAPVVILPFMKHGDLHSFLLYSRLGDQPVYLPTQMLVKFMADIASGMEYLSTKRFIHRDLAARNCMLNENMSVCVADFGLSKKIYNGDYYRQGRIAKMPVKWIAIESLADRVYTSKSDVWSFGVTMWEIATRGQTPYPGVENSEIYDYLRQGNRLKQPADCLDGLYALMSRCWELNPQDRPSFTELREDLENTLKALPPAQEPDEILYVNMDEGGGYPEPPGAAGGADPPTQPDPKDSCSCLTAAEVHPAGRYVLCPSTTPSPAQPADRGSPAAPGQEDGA
Mer (phospho-Mer, MERTK-transfected 293A cells), sequence (Q12866 21-999): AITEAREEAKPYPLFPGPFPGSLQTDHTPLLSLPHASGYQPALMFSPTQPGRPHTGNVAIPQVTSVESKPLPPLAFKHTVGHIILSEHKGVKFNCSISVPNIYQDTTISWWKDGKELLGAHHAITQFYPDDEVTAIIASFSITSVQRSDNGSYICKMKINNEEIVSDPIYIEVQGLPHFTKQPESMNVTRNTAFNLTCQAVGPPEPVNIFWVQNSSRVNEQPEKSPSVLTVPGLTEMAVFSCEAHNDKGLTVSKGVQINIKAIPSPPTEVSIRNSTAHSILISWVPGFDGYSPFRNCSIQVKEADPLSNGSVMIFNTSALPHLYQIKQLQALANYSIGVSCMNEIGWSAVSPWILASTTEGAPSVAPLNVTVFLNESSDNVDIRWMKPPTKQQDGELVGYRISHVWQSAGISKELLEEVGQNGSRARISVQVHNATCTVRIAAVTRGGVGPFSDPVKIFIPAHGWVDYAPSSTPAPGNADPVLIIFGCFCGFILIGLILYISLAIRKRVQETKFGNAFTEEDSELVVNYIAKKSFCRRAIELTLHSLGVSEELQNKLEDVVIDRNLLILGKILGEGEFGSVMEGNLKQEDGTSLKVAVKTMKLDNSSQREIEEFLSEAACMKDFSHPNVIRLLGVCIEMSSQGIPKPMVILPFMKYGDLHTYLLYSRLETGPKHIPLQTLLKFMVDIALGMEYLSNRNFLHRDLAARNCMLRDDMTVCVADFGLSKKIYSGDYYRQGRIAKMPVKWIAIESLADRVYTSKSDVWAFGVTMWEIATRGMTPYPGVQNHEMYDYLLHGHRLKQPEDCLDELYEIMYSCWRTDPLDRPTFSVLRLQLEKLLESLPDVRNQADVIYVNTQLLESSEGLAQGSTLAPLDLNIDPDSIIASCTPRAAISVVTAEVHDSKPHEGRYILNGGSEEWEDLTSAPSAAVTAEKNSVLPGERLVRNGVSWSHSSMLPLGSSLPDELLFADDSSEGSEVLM

| Structure (SMILES) | pIC50 [1, 5] | pIC50 [2, 6] | pIC50 [3, 7] | pIC50 [4, 8] | pIC50 ([1]; A-172 cells) | pIC50 ([2]; PC-3 cells) | pIC50 ([3]; HUVEC cells) | pIC50 ([4]; transfected 293A cells) |
| --- | --- | --- | --- | --- | --- | --- | --- | --- |
| C=C(C)c1cnc2c(Oc3ccc(NC(=O)c4c(C)nc(C)n(-c5ccc(F)cc5)c4=O)cc3)ccnc2c1 [Compound 467, 1-(4-fluorophenyl)-2,4-dimethyl-6-oxo-N-[4-[(7-prop-1-en-2-yl-1,5-naphthyridin-4-yl)oxy]phenyl]pyrimidine-5-carboxamide] | > 7.00 | > 7.00 | > 7.00 | > 7.00 | – | – | – | – |
| COc1cc2nccc(Oc3ccc(NC(=O)c4n[nH]c(C)cc4=O)cc3F)c2nc1OC [Compound 536, N-[4-[(6,7-dimethoxy-1,5-naphthyridin-4-yl)oxy]-3-fluorophenyl]-6-methyl-4-oxo-1H-pyridazine-3-carboxamide] | < 6.52 | < 6.52 | < 6.52 | < 6.52 | – | – | – | – |
| COc1cc2nccc(Oc3ccc(NC(=O)c4c(C)ncc(-c5ccc(F)c(C)c5)c4O)cc3F)c2nc1OC [Compound 794, N-[4-[(6,7-dimethoxy-1,5-naphthyridin-4-yl)oxy]-3-fluorophenyl]-5-(4-fluoro-3-methylphenyl)-4-hydroxy-2-methylpyridine-3-carboxamide] | > 7.00 | > 7.00 | > 7.00 | > 7.00 | – | – | – | – |
| COc1cc2nccc(Oc3ccc(NC(=O)c4c[nH]c(=S)n(-c5ccc(F)cc5)c4=O)cc3F)c2cc1OC [Compound 646, N-[4-(6,7-dimethoxyquinolin-4-yl)oxy-3-fluorophenyl]-3-(4-fluorophenyl)-4-oxo-2-sulfanylidene-1H-pyrimidine-5-carboxamide] | > 7.00 | > 7.00 | > 7.00 | > 7.00 | – | – | – | – |
| COc1cc2nccc(Oc3ccc(NC(=O)c4c(C)c(F)cn(-c5ccc(F)cc5)c4=O)cc3F)c2nc1OC [Compound 664, N-[4-[(6,7-dimethoxy-1,5-naphthyridin-4-yl)oxy]-3-fluorophenyl]-5-fluoro-1-(4-fluorophenyl)-4-methyl-2-oxopyridine-3-carboxamide] | > 7.00 | > 7.00 | > 7.00 | > 7.00 | – | – | – | – |
| COc1cc2nccc(Oc3ccc(NC(=O)c4c(C)c(F)c(C)n(-c5ccc(F)cc5)c4=O)cc3)c2nc1OC [Compound 325, N-[4-[(6,7-Dimethoxy-1,5-naphthyridin-4-yl)oxy]phenyl]-5-fluoro-1-(4-fluorophenyl)-4,6-dimethyl-2-oxopyridine-3-carboxamide] | > 7.00 | > 7.00 | > 7.00 | > 7.00 | – | – | – | – |
| COc1cc2nccc(Oc3ccc(NC(=O)c4c(OC)n(C)c(C)c(-c5ccc(F)cc5)c4=O)cc3F)c2nc1OC [Compound 648, N-[4-[(6,7-dimethoxy-1,5-naphthyridin-4-yl)oxy]-3-fluorophenyl]-5-(4-fluorophenyl)-2-methoxy-1,6-dimethyl-4-oxopyridine-3-carboxamide] | > 7.00 | > 7.00 | 6.52 to 7.00 | > 7.00 | – | – | – | – |
| COCCOc1cc2nccc(Oc3ccc(NC(=O)c4c(C)ccn(-c5ccc(F)cc5)c4=O)cc3F)c2nc1OC [Compound 703, N-[3-fluoro-4-[[6-methoxy-7-(2-methoxyethoxy)-1,5-naphthyridin-4-yl]oxy]phenyl]-1-(4-fluorophenyl)-4-methyl-2-oxopyridine-3-carboxamide] | > 7.00 | > 7.00 | > 7.00 | > 7.00 | – | – | – | – |
| COCCOc1cnc2c(Oc3ccc(NC(=O)c4c(C)nc(C)c(-c5ccc(F)cc5C)c4O)cc3F)ccnc2c1 [Compound 683, N-[3-fluoro-4-[[7-(2-methoxyethoxy)-1,5-naphthyridin-4-yl]oxy]phenyl]-5-(4-fluoro-2-methylphenyl)-4-hydroxy-2,6-dimethylpyridine-3-carboxamide] | > 7.00 | > 7.00 | > 7.00 | > 7.00 | – | – | – | – |
| COc1cc2nccc(Oc3ccc(NC(=O)c4cn(C(C)(C)CO)cc(-c5ccc(F)cc5)c4=O)cc3F)c2cc1OC [Compound 57, N-[4-(6,7-Dimethoxyquinolin-4-yl)oxy-3-fluorophenyl]-5-(4-fluorophenyl)-1-(1-hydroxy-2-methylpropan-2-yl)-4-oxopyridine-3-carboxamide] | > 7.00 | > 7.00 | < 6.52 | > 7.00 | – | – | – | – |
| COCc1nc(C)c(Br)c(O)c1C(=O)Nc1ccc(Oc2ccnc3cc(OC)c(OC)nc23)c(F)c1 [Compound 535, 5-bromo-N-[4-[(6,7-dimethoxy-1,5-naphthyridin-4-yl)oxy]-3-fluorophenyl]-4-hydroxy-2-(methoxymethyl)-6-methylpyridine-3-carboxamide] | > 7.00 | > 7.00 | < 6.52 | > 7.00 | – | – | – | – |
| COc1cc2nccc(Oc3ccc(NC(=O)c4c(C)nnc(-c5ccc(F)cc5)c4OC)cc3F)c2nc1OC [Compound 657, N-[4-[(6,7-dimethoxy-1,5-naphthyridin-4-yl)oxy]-3-fluorophenyl]-6-(4-fluorophenyl)-5-methoxy-3-methylpyridazine-4-carboxamide] | > 7.00 | > 7.00 | > 7.00 | > 7.00 | – | – | – | – |
| COCCOc1cnc2c(Oc3ccc(NC(=O)c4c(C)nc(C)c(-c5ccc(F)cc5C)c4O)cc3)ccnc2c1 [Compound 724, 5-(4-fluoro-2-methylphenyl)-4-hydroxy-N-[4-[[7-(2-methoxyethoxy)-1,5-naphthyridin-4-yl]oxy]phenyl]-2,6-dimethylpyridine-3-carboxamide] | > 7.00 | > 7.00 | > 7.00 | > 7.00 | – | – | – | – |
| COc1cc2nccc(Oc3cc(F)c(NC(=O)c4c(C)nc(C)c(-c5ccc(F)cc5C)c4O)cc3F)c2nc1Cl [Compound 737, N-[4-[(6-chloro-7-methoxy-1,5-naphthyridin-4-yl)oxy]-2,5-difluorophenyl]-5-(4-fluoro-2-methylphenyl)-4-hydroxy-2,6-dimethylpyridine-3-carboxamide] | > 7.00 | > 7.00 | > 7.00 | > 7.00 | – | – | – | – |
| COc1cnc2c(Oc3ccc(NC(=O)c4cn(CC(F)F)c(C)c(-c5ccc(F)cc5C)c4=O)cc3)ccnc2c1 [Compound 731, 1-(2,2-difluoroethyl)-5-(4-fluoro-2-methylphenyl)-N-[4-[(7-methoxy-1,5-naphthyridin-4-yl)oxy]phenyl]-6-methyl-4-oxopyridine-3-carboxamide] | > 7.00 | > 7.00 | < 6.52 | > 7.00 | – | – | – | – |
| COc1cnc2c(Oc3ccc(NC(=O)c4c(C)c(C(C)=O)c(C)n(-c5ccc(F)cc5)c4=O)cc3F)ccnc2c1 [Compound 323, 5-Acetyl-N-[3-fluoro-4-[(7-methoxy-1,5-naphthyridin-4-yl)oxy]phenyl]-1-(4-fluorophenyl)-4,6-dimethyl-2-oxopyridine-3-carboxamide] | > 7.00 | > 7.00 | 6.52 to 7.00 | > 7.00 | – | – | – | – |
| CCc1c(C)c(C(=O)Nc2ccc(Oc3ccnc4cc(OC)c(OC)nc34)cc2)c(=O)n(-c2ccc(F)cc2)c1C [Compound 331, N-[4-[(6,7-dimethoxy-1,5-naphthyridin-4-yl)oxy]phenyl]-5-ethyl-1-(4-fluorophenyl)-4,6-dimethyl-2-oxopyridine-3-carboxamide] | > 7.00 | > 7.00 | < 6.52 | > 7.00 | – | – | – | – |
| COc1cc2nccc(Oc3ccc(NC(=O)c4c(C)n(CC(F)F)cc(-c5ccc(F)c(F)c5)c4=O)cc3F)c2nc1OC [Compound 816, 1-(2,2-difluoroethyl)-5-(3,4-difluorophenyl)-N-[4-[(6,7-dimethoxy-1,5-naphthyridin-4-yl)oxy]-3-fluorophenyl]-2-methyl-4-oxopyridine-3-carboxamide] | – | – | – | – | > 7.00 | > 7.00 | < 6.52 | > 7.00 |
| COc1cnc2c(Oc3ccc(NC(=O)c4c(C)c(C)nn(-c5ccc(F)cc5)c4=O)cc3)ccnc2c1 [Compound 733, 2-(4-fluorophenyl)-N-[4-[(7-methoxy-1,5-naphthyridin-4-yl)oxy]phenyl]-5,6-dimethyl-3-oxopyridazine-4-carboxamide] | < 6.52 | > 7.00 | < 6.52 | > 7.00 | – | – | – | – |
| COc1cnc2c(Oc3ccc(NC(=O)c4c(C)n(CC(F)F)cc(-c5ccc(F)cc5OC)c4=O)cc3F)ccnc2c1 [Compound 811, 1-(2,2-difluoroethyl)-N-[3-fluoro-4-[(7-methoxy-1,5-naphthyridin-4-yl)oxy]phenyl]-5-(4-fluoro-2-methoxyphenyl)-2-methyl-4-oxopyridine-3-carboxamide] | – | – | – | – | > 7.00 | > 7.00 | > 7.00 | > 7.00 |

— US12371428B2 (Exelixis, Inc., priority 2019, dated 2025)
